The source of these data is US20110098323A1, “INHIBITORS OF BACTERIAL BIOFILM FORMATION” (MICROBIOTIX, INC., priority 2009, published 2011).

Where two headings read alike, the source gives them in different places.

In one assay the test system is S. aureus strain NRS-123. Put plainly: MBIC/MIC secondary assay. It counts as cell-based, Staphylococcus aureus. The note with it: for MIC: Staphylococcus aureus, NRS123. On the procedure: (§1) Assays for detecting and measuring bacterial biofilm formation are known in the art. An example of a biofilm formation assay useful in detecting and characterizing biofilm inhibitor compounds is described in Example 1, infra. Briefly, bacterial cells are inoculated into growth medium in individual wells of a 96-well assay plate in the presence or absence of a compound (known biofilm inhibitor or test compound). After incubation for a specified time, growth medium and non-biofilm bacterial cells are removed from each of the wells. The bacterial cells in any biofilms that are adhered to the surface of a well are fixed by addition of ethanol. The ethanol is removed, and the fixed biofilm bacteria cells are stained with crystal violet (CV). The intensity of CV staining is directly correlated with bacterial biofilm formation and is measured in the wells by reading the optical density at 600 nm (OD600). The difference in biofilm formation between untreated control and treated cultures provides an indication of relative biofilm inhibition activity (anti-biofilm activity). Use of different concentrations of an inhibitor in multiple and otherwise duplicate cultures permits determination of a compound's Minimal Biofilm Inhibitory Concentration (MBIC), which is defined herein as the lowest concentration of a compound that inhibits biofilm formation by at least 80% (i.e., ≧80%) compared to untreated control cultures.
(§2) A higher throughput was achieved by formatting the assay for use in flat-bottomed 96-well assay plates (Costar 3590 assay plates, Corning Life Sciences, Lowell, Mass.). The biofilm cultures grew on the bottoms of each well in a surface attached mode. In each assay plate, columns 1 and 12 contained untreated cultures, which served as negative controls (0% biofilm inhibition). Each of the assay wells in columns 2-11 contained a unique small molecule from the Microbiotix Screening Library (MSL) at a final concentration of 100 μM. Assay plates were inoculated with 200 μl/well of a culture of Staphylococcus pidermidis 18972 in 0.5×Tryptic Soy Broth (TSB; Becton Dickinson, Franklin Lakes, N.J.) in which the concentration of glucose was adjusted to 0.25% (w/v). The bacterial inocula were prepared by making a 1:100 dilution of an overnight culture grown in TSB in the media used for the screen. After inoculation, assay plates were sealed with foil tape and incubated at 37° C. for 18-20 hours (h). The optical density at 600 nm (OD600) was measured for each well using a VICTOR2V™ multiplate reader (Perkin Elmer, Waltham, Mass.) in order to quantify overall bacterial growth. The assay plates were processed to remove bacterial growth media and non-biofilm cells from the bottom of each assay well. This was accomplished by using a BioTek ELx405™ plate washer (BioTek Instruments, Inc., Winooski, Vt.). Biofilm bacteria were fixed by addition of 50 μl of 95% ethanol for 30 minutes (min). The ethanol was removed, and the fixed biofilm cultures were stained with 50 μl of 0.06% crystal violet (CV) for 60 min. Excess CV was removed by repeated washes using the BioTek ELx405™ plate washer. The amount of CV bound to each assay well was quantified by measuring OD600 using a VICTOR2V™ plate reader (Perkin Elmer).
(§3) A secondary assay provided a quantitative measure of both anti-biofilm activity and antibacterial activity in terms of the Minimal Biofilm Inhibitory Concentration (MBIC) and the Minimal Inhibitory Concentration (MIC), respectively. The MBIC and MIC are defined as the lowest compound concentrations that inhibit biofilm formation and bacterial growth, respectively, by at least 80% (i.e., ≧80%). The MBIC/MIC assay is formatted in a manner that is similar to the Microbroth dilution assays described by the Clinical and Laboratory Standards Institute (CLSI; formerly NCCLS) in protocol M7-A7. The growth conditions were optimized for biofilm growth in 96-well assay plates such that the resulting CV staining was within the linear range of detection. […]

In assay [1] the test system is methicillin-susceptible S. aureus (MSSA). Description: MBIC/MIC secondary assay. The assay is classed as cell-based, Staphylococcus aureus. The note with it: for MIC: Staphylococcus aureus. On the procedure: as §1, §2, §3

For `CCOc1cc(/C=C2\SC(=S)N(c3ccc(F)cc3)C2=O)ccc1O` [Compound 4, 3-(4-fluorophenyl)-5-(3-ethoxy-4-hydroxybenzylidene)-2-thioxothiazolidin-4-one], the MBIC with S. aureus strain NRS-123 (S. aureus strain NRS-123) came to 25 µM; in assay [1] (S. aureus strain MSSA), 12.5 µM. The MIC (against S. aureus strain NRS-123; in assay [1] (MSSA)) was at least 100 µM throughout.
As to `CCOc1cc(/C=C2\SC(=S)N(c3cccc(F)c3)C2=O)ccc1O` [Compound 8, 3-(3-fluorophenyl)-5-(3-ethoxy-4-hydroxybenzylidene)-2-thioxothiazolidin-4-one], the MBIC (with S. aureus strain NRS-123 (S. aureus strain NRS-123); in assay [1] (S. aureus strain MSSA)) was 25 µM each time. Further, the MIC (against S. aureus strain NRS-123; in assay [1] (MSSA)) was at least 100 µM throughout.
As for `C=CCOc1cc(/C=C2\SC(=S)N(c3ccc(F)cc3)C2=O)ccc1O` [Compound 29, 3-(4-fluorophenyl)-5-(3-allyloxy-4-hydroxybenzylidene)-2-thioxothiazolidin-4-one], the MBIC in the assay with S. aureus strain NRS-123 (S. aureus strain NRS-123) worked out at 25 µM; in assay [1] (S. aureus strain MSSA), 12.5 µM. For the same compound, the MIC (in general, the lowest concentration that inhibits growth of the organism) with S. aureus strain NRS-123 (S. aureus strain NRS-123, read-out: MIC) was at least 100 µM; in assay [1] (S. aureus strain MSSA, read-out: MIC) it was at least 100 µM.
Consider `CCOc1cc(/C=C2\SC(=S)N(c3cccc(C#N)c3)C2=O)ccc1O` [Compound 34, 3-(3-cyanophenyl)-5-(3-ethoxy-4-hydroxybenzylidene)-2-thioxothiazolidin-4-one], for which the MBIC in the assay on S. aureus strain NRS-123 (S. aureus strain NRS-123) stood at 25 µM; in assay [1] (S. aureus strain MSSA), 12.5 µM. The MIC (with S. aureus strain NRS-123; in assay [1] (MSSA)) was at least 100 µM throughout.
`CCOc1cc(/C=C2\SC(=S)N(c3cccnc3)C2=O)ccc1O` [Compound 36, 3-(pyridin-3-yl)-5-(3-ethoxy-4-hydroxybenzylidene)-2-thioxothiazolidin-4-one]: the MBIC (with S. aureus strain NRS-123 (S. aureus strain NRS-123); in assay [1] (S. aureus strain MSSA)) was 12.5 µM throughout. Besides, the MIC (against S. aureus strain NRS-123; in assay [1] (MSSA)) was at least 100 µM throughout.
On to `CCOc1cc(/C=C2\SC(=S)N(c3ccc(F)nc3)C2=O)ccc1O` [Compound 40, 3-(6-fluoropyridin-3-yl)-5-(3-ethoxy-4-hydroxybenzylidene)-2-thioxothiazolidin-4-one], for which the MBIC with S. aureus strain NRS-123 (S. aureus strain NRS-123) was found to be 50 µM; in assay [1] (S. aureus strain MSSA), 6.3 µM. Also, the MIC (against S. aureus strain NRS-123; in assay [1] (MSSA)) was at least 100 µM each time.
